# Reference: patent US11981661B2, “Heterocyclic compounds” (Hoffmann-La Roche Inc., priority 2020, dated 2024)
# Target: T1, MAGL (Homo sapiens, UniProt Q99685)
# T1 sequence (Q99685 1-303): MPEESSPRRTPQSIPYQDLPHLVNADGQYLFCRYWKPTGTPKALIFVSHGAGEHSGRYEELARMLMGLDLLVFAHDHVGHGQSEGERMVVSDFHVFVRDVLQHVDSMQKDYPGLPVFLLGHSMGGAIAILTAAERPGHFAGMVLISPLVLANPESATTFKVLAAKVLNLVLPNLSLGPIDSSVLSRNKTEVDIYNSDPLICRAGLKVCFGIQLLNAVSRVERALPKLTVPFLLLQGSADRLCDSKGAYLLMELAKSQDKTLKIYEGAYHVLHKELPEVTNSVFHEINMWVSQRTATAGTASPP
# Assay: 2-AG assay (MAGL inhibitory activity, hydrolysis of 2-arachidonoylglycerol followed by mass spectrometry)
# Assay type: biochemical
# Details: 50 pM MAGL, 8 μM 2-arachidonoylglycerol, 15 min preincubation, 30 min incubation at RT, concentration range 12.5 μM to 0.8 pM
# Protocol: Compounds were profiled for MAGL inhibitory activity by determining the enzymatic activity by following the hydrolysis of the natural substrate 2-arachidonoylglycerol resulting in arachidonic acid, which can be followed by mass spectrometry. This assay is hereinafter abbreviated “2-AG assay”.
# The 2-AG assay was carried out in 384 well assay plates (PP, Greiner Cat #784201) in a total volume of 20 μL. Compound dilutions were made in 100% DMSO (VWR Chemicals 23500.297) in a polypropylene plate in 3-fold dilution steps to give a final concentration range in the assay from 12.5 μM to 0.8 pM. 0.25 μL compound dilutions (100% DMSO) were added to 9 μL MAGL in assay buffer (50 mM TRIS (GIBCO, 15567-027), 1 mM EDTA (Fluka, 03690-100 mL), 0.01% (v/v) Tween. After shaking, the plate was incubated for 15 min at RT. To start the reaction, 10 μL 2-arachidonoylglycerol in assay buffer was added. The final concentrations in the assay was 50 pM MAGL and 8 μM 2-arachidonoylglyerol. After shaking and 30 min incubation at RT, the reaction was quenched by the addition of 40 μL of ACN containing 4 μM of d8-arachidonic acid. The amount of arachidonic acid was traced by an online SPE system (Agilent Rapidfire) coupled to a triple quadrupole mass spectrometer (Agilent 6460). A C18 SPE cartridge (G9205A) was used in an ACN/water liquid setup. The mass spectrometer was operated in negative electrospray mode following the mass transitions 303.1→259.1 for arachidonic acid and 311.1→267.0 for d8-arachidonic acid. The activity of the compounds was calculated based on the ratio of intensities [arachidonic acid/d8-arachidonic acid].
row,Compound,IC50
1,"CC(C)(Oc1ccc(C2CN(C(=O)CCCc3cnn[nH]3)C2)cc1)C(F)(F)F [Example 41, 4-(1H-Triazol-5-yl)-1-[3-[4-(2,2,2-trifluoro-1,1-dimethyl-ethoxy)phenyl]azetidin-1-yl]butan-1-one]",23 nM
2,"O=C(CCCc1cnn[nH]1)N1CC(OCc2ccc(C(F)(F)F)cc2F)C1 [Example 39, 1-[3-[[2-Fluoro-4-(trifluoromethyl)phenyl]methoxy]azetidin-1-yl]-4-(1H-triazol-5-yl)butan-1-one]",58 nM
3,"O=C1N[C@H](COC(=O)N2CC(c3ccc(C4(C(F)(F)F)CC4)cc3)C2)CO1 [Example 56, [(4S)-2-Oxooxazolidin-4-yl]methyl 3-[4-[1-(trifluoromethyl)cyclopropyl]phenyl] azetidine-1-carboxylate]",5 nM
4,"O=C1N[C@@H](COC(=O)N2CC3(CC(Cc4ccc(F)cc4F)C3)C2)CO1 [Example 59, [(4R)-2-Oxooxazolidin-4-yl]methyl 6-[(2,4-difluorophenyl)methyl]-2-azaspiro[3.3]heptane-2-carboxylate]",2 nM
5,"O=C1N[C@H](CCC(=O)N2CC3(CN(Cc4ccc(S(=O)(=O)C(F)(F)F)cc4)C3)C2)CO1 [Example 187, (4R)-4-[3-Oxo-3-[6-[[4-(trifluoro-methylsulfonyl)phenyl]methyl]-2,6-diazaspiro [3.3]heptan-2-yl]propyl] oxazolidin-2-one]",206 nM
6,"O=C1N[C@H](CCC(=O)N2CC(c3ccc(C4CC5(CCC5)C4)nc3)C2)CO1 [Example 163, (4R)-4-[3-Oxo-3-[3-(6-spiro[3.3]heptan-2-yl-3-pyridyl)azetidin-1-yl]propyl] oxazolidin-2-one]",9 nM
7,"O=C1N[C@H](CCC(=O)N2CC(c3ccc(Oc4ccc(F)cc4)cc3)C2)CO1 [Example 30, (4R)-4-[3-[3-[4-(4-Fluorophenoxy)phenyl]azetidin-1-yl]-3-oxo-propyl]oxazolidin-2-one]",1 nM
8,"O=C1N[C@H](CCC(=O)N2CC(c3ccc(N4CCC(O)(C(F)(F)F)C4)nc3)C2)CO1 (stereo partly drawn) [Example 207, (+)- or (−)-(4R)-4-[3-[3-[6-[3-Hydroxy-3-(trifluoromethyl)pyrrolidin-1-yl]-3-pyridyl]azetidin-1-yl]-3-oxo-propyl]oxazolidin-2-one]",17 nM
9,"O=C1CCC(CCC(=O)N2CC(c3ccc(C4(C(F)(F)F)CC4)cc3)C2)N1 (single isomer, unassigned; (-)) [Example 5, (−)-5-[3-Oxo-3-[3-[4-[1-(trifluoromethyl)cyclopropyl]phenyl]azetidin-1-yl]propyl]pyrrolidin-2-one]",627 nM
10,"O=C1CCC(CCC(=O)N2CC(c3ccc(-c4ccc(F)cc4F)cc3)C2)N1 (single isomer, unassigned; (+)) [Example 10, (+)-5-[3-[3-[4-(2,4-Difluorophenyl)phenyl]azetidin-1-yl]-3-oxo-propyl]pyrrolidin-2-one]",5 nM
11,"CC(C)(C)Cc1nnc(C23CC(C4CN(C(=O)CC[C@@H]5COC(=O)N5)C4)(C2)C3)o1 [Example 165, (4R)-4-[3-[3-[3-[5-(2,2-Dimethyl-propyl)-1,3,4-oxadiazol-2-yl]-1-bicyclo[1.1.1]pentanyl]azetidin-1-yl]-3-oxo-propyl] oxazolidin-2-one]",24 nM
12,"O=C1COCC(CCC(=O)N2CC(OCc3ccc(C(F)(F)F)cc3F)C2)N1 (single isomer, unassigned; (+)) [Example 51, (+)-5-[3-[3-[[2-Fluoro-4-(trifluoromethyl)phenyl]methoxy]azetidin-1-yl]-3-oxo-propyl]morpholin-3-one]",287 nM
13,"O=C(CCCc1cnn[nH]1)N1CC(c2ccc(N3CC(OCC(F)(F)F)C3)cc2)C1 [Example 46, 4-(1H-Triazol-5-yl)-1-[3-[4-[3-(2,2,2-trifluoroethoxy)azetidin-1-yl]phenyl]azetidin-1-yl]butan-1-one]",323 nM
14,"O=C1N[C@H](CCC(=O)N2CC(c3ccc(N4CCC(O)(C(F)(F)F)C4)nc3)C2)CO1 (stereo partly drawn) [Example 146, (4R)-4-[3-[3-[6-[3-Hydroxy-3-(trifluoro-methyl)pyrrolidin-1-yl]-3-pyridyl]azetidin-1-yl]-3-oxo-propyl] oxazolidin-2-one]",137 nM
15,"O=C1N[C@H](CCC(=O)N2CC(c3ccc(Oc4nccc(C(F)(F)F)n4)cc3)C2)CO1 [Example 127, (4R)-4-[3-Oxo-3-[3-[4-[4-(trifluoro-methyl)pyrimidin-2-yl]oxyphenyl]azetidin-1-yl]propyl]oxazolidin-2-one]",1800 nM
16,"Cc1ncccc1Oc1ccc(C2CN(C(=O)CC[C@@H]3COC(=O)N3)C2)cc1 [Example 79, (4R)-4-[3-[3-[4-[(2-Methyl-3-pyridyl)oxy]phenyl]azetidin-1-yl]-3-oxo-propyl]oxazolidin-2-one]",33 nM
17,"O=C1N[C@@H](CCC(=O)N2CC(c3ccc(C4(C(F)(F)F)CC4)cc3)C2)CO1 [Example 21, (4S)-4-[3-Oxo-3-[3-[4-[1-(trifluoromethyl)cyclo-propyl]phenyl]azetidin-1-yl]propyl]oxazolidin-2-one]",254 nM
18,"O=C(CCCc1cnn[nH]1)N1CC(C#Cc2cccc(Cl)c2)C1 [Example 44, 1-[3-[2-(3-Chlorophenyl)ethynyl]azetidin-1-yl]-4-(1H-triazol-5-yl)butan-1-one]",61 nM
19,"CS(=O)(=O)c1ccc(-c2ccc(C3CN(C(=O)CC[C@@H]4COC(=O)N4)C3)cc2)c(Cl)c1 [Example 73, (4R)-4-[3-[3-[4-(2-Chloro-4-methyl-sulfonyl-phenyl)phenyl]azetidin-1-yl]-3-oxo-propyl]oxazolidin-2-one]",1 nM
20,"NC(=O)c1cc(Cl)ccc1Oc1ccc(C2CN(C(=O)CC[C@@H]3COC(=O)N3)C2)cn1 [Example 85, 5-Chloro-2-[[5-[1-[3-[(4R)-2-oxooxazolidin-4-yl]propanoyl]azetidin-3-yl]-2-pyridyl]oxy]benzamide]",123 nM
21,"CS(=O)(=O)c1ccc(-c2cnc(C3CN(C(=O)CC[C@@H]4COC(=O)N4)C3)nc2)c(Cl)c1 [Example 122, (4R)-4-[3-[3-[5-(2-Chloro-4-methylsulfonyl-phenyl)pyrimidin-2-yl]azetidin-1-yl]-3-oxo-propyl] oxazolidin-2-one]",379 nM
22,"O=C1N[C@H](CCC(=O)N2CC(c3ccc([C@H]4CC[C@@H](C(F)(F)F)CC4)nc3)C2)CO1 (single isomer, unassigned) [Example 200]",1 nM
23,"CS(=O)(=O)c1cc(Cl)ccc1-c1ccc(C2CN(C(=O)NCC3COC(=O)N3)C2)cc1 (stereo not drawn) [Example 212, 3-[4-(4-Chloro-2-methylsulfonyl-phenyl)phenyl]-N-[(2-oxooxazolidin-4-yl)methyl]azetidine-1-carboxamide]",25 nM
24,"CS(=O)(=O)c1ccc(C(c2ccccc2)C2CCN(C(=O)CC[C@@H]3COC(=O)N3)CC2)cc1 (single isomer, unassigned) [Example 83, (+)- or (−)-(4R)-4-[3-[4-[(4-Methyl-sulfonylphenyl)-phenyl-methyl]-1-piperidyl]-3-oxo-propyl]oxazolidin-2-one]",44 nM
25,"O=C1CCC(CCC(=O)N2CC(OCc3ccc(C(F)(F)F)cc3F)C2)N1 (single isomer, unassigned; (+)) [Example 2, (+)-5-[3-[3-[[2-Fluoro-4-(trifluoromethyl)phenyl]methoxy]azetidin-1-yl]-3-oxo-propyl]pyrrolidin-2-one]",19 nM
26,"O=C1CCC(CCC(=O)N2C[C@@H]3CN(Cc4ccc(C(F)(F)F)cc4F)C[C@H]3C2)N1 (single isomer, unassigned; (-)) [Example 11]",≥ 12500 nM
27,"O=C1N[C@H](CCC(=O)N2CC3(CCN(Cc4ccc(C(F)(F)F)cn4)CC3)C2)CO1 [Example 197, (4R)-4-[3-Oxo-3-[7-[[5-(trifluoro-methyl)-2-pyridyl]methyl]-2,7-diazaspiro [3.5]nonan-2-yl]propyl] oxazolidin-2-one]",324 nM
28,"O=C1N[C@H](CCC(=O)N2CC3(CC(Cc4ccc(C(F)(F)F)nn4)C3)C2)CO1 [Example 181, (4R)-4-[3-Oxo-3-[6-[[6-(trifluoro-methyl)pyridazin-3-yl]methyl]-2-azaspiro[3.3]heptan-2-yl]propyl] oxazolidin-2-one]",227 nM
29,"O=C(CCc1ccn[nH]1)N1CC(OCc2ccc(C(F)(F)F)cc2F)C1 [Example 47, 1-[3-[[2-Fluoro-4-(trifluoromethyl)phenyl]methoxy]azetidin-1-yl]-3-(1H-pyrazol-5-yl)propan-1-one]",430 nM
30,"CS(=O)(=O)CC1CN(c2ccc(C3CN(C(=O)CC[C@@H]4COC(=O)N4)C3)cc2)C1 [Example 104, (4R)-4-[3-[3-[4-[3-(Methyl-sulfonylmethyl)azetidin-1-yl]phenyl]azetidin-1-yl]-3-oxo-propyl]oxazolidin-2-one]",177 nM
